Source: patent US11419869B2, “Dosage forms and regimens for amino acid compounds” (Pliant Therapeutics, Inc., priority 2019, dated 2022)

How the values were obtained:
SMAD3 phosphorylation = assay: PSMAD3/SMAD3 in healthy mice treated for 4 days; format: in vivo; details: 4 days of treatment
Excerpt: It has been previously shown that inhibition of αvβ6 in the lung can be detected though measurement of phospho-SMAD (pSMAD) in alveolar macrophages. Alveolar macrophages are known to operate in a unique niche in the lung, distinct from interstitial macrophages. SMAD3 is a downstream target of the active TGF-β cytokine binding its receptor and in alveolar macrophages it is phosphorylated by homoeostatic levels of TGF-β. Accordingly, it was desirable to know whether inhibition of TGF-β activation using the disclosed compounds would result in reduced SMAD2 and SMAD3 phosphorylation.
FIG. 4A is a graph of PSMAD3/SMAD3 in lung tissue from healthy mice administered PBS vehicle and varying levels of compound 5 for 4 days. FIG. 4B is a graph of PSMAD3/SMAD3 in BALF drawn from the same healthy mice administered PBS vehicle and varying levels of compound 5 for 4 days.

COL1A1 expression [1] = assay: COL1A1 expression in precision cut lung slices (PCLS) from human IPF lung tissue; details: FIG. 6E, 200 pM to 1 μM
[2] = tested on: IPF-derived lung fibroblasts; assay: cell adhesion in IPF-derived lung fibroblasts (FIG. 3B); format: cell-based
pSMAD2:SMAD2 ratio = assay: pSMAD2/SMAD2 in BAL from healthy human subjects (Example B13); format: in vivo; details: Day 7, subjects with Cmax above 700 ng/mL, compared to placebo group, 20 or 40 mg daily
Method: In order to evaluate the change of pSMAD2 as a biomarker of TGF-β activity following administration of an integrin inhibitor, and to determine a therapeutically effective dosage and an effective blood plasma Cmax of the integrin inhibitor, healthy subjects were administered compound 5, a dual selective αvβ6/αvβ1-integrin inhibitor, and the corresponding Cmax levels and decrease in phosphorylation levels and were determined.
Healthy non-smoking adult males without history of lung disease were selected as subjects and were randomized into 4 cohorts. Broncoalevaolar lavage samples were obtained from all subjects 1 day prior to start of treatment. Cohorts 1 and 2 were administered 20 mg of a compound daily, wherein 3 subjects were administered the dual selective αvβ6/αvβ1-integrin inhibitor (compound 5) per every 1 subject receiving a placebo compound. Cohorts 3 and 4 were administered 40 mg of a compound daily, wherein 3 subjects were administered the dual selective αvβ6/αvβ1-integrin inhibitor (compound 5) per every 1 subject receiving a placebo compound. BAL samples and blood samples were taken from all subjects on Day −1 (baseline) and on Day 7 (end of treatment).

Mice (C57BL/6) = assay: Murine bleomycin model (Example B7); format: in vivo
Method: Mice (C57BL/6) were divided into healthy (n=15), vehicle-treated (n=15), and test article-treated (n=15 per dose) groups. Mice in the vehicle and test article-treated groups were administered 3 U/kg of bleomycin (Teva Pharmaceuticals; North Wales, Pa.) via oropharyngeal aspiration while under anesthesia on day 0. Healthy animals were administered water in a similar fashion. Starting on day 7, mice in the control group were administered PBS vehicle, 130 μL, by oral gavage, BID for 14 days. Also starting on day 7, mice in the test group were administered compound 5 in PBS by oral gavage, BID for 14 days, at relative dosages of 1×, 2.5× and 5×. […] From day 14 through day 21, 9 of the 15 mice were administered ^2H2O for labeling. All mice were sacrificed on day 21 and tissues were collected. Samples were prepared for analysis either directly from lung tissue, or by bronchoalveolar lavage, which washes out the bronchiolar and alveolar space with saline to produce a bronchoalveolar lavage fluid (BALF) in which 80-90% of cells are alveolar macrophages.
FIG. 4C is a graph showing that compared to the healthy mice, lung tissue in the vehicle-treated mice experienced a substantial increase in SMAD3 phosphorylation, which is a measure of TGF-β signaling-related kinase activity. […] FIG. 4D is a graph showing that compared to the healthy mice, lung tissue in the vehicle-treated mice experienced a substantial accumulation of new collagen as evidenced by the percentage of lung collagen containing ^2H-labeled hydroxyproline.
FIGS. 4F, 4G, and 4H show high resolution second harmonic generation images of fibrillar collagen (collagen type I and III) taken from formalin-fixed paraffin embedded lung tissue sections from a healthy mouse lung (4F), a vehicle-treated mouse lung (4G) and a test-article treated mouse lung (4H; 500 mg/kg BID). Color scale is indicative of collagen fiber density (red=most dense; blue=least dense).
FIG. 4I is a graph showing the percent total collagen area in the second harmonic generation mouse lung images. Large structural areas of collagen found similarly in healthy and fibrotic tissues (dense collagen fibers surrounding airways were excluded from this analysis to focus on interstitial fibrotic collagen). […] The 1×, 2.5×, and 5× dosages were at the same absolute values in mg/kg as in Example B7.
The data for FIGS. 4J and 4K, was obtained 14 days after bleomycin challenge in mice were treated with compound 5 at 2.5× dose (PO, BID for 1.5 days).

COL1A1 expression [3] = assay: Precision cut lung slices from human IPF explants, COL1A1 expression (Example B11); format: cell-based
Excerpt: Explanted lung tissue was obtained from human IPF subjects and inflated with agarose as described in the preceding examples. Biopsy cores were obtained from the agarose-inflated lung tissue. The biopsy cores were subjected to precision slicing to obtain several hundred μm thick. Individual slices were distributed in a multiwell culture plate and cultured for […] under control (DMSO) and test compound conditions. The viability of the slices over the course of culturing was confirmed by WST-1 assay of mitochondrial activity.
PCLS from 5-7 idopathic pulmonary fibrosis (IPF) lung tissue samples were cultured for seven days with one of: DMSO; Compound 5 at 200 nM; nintedanib at 75 nM; pirfenidone at 50 μm; a combination of Compound 5 at 200 nM and nintedanib at 75 nM; a combination of Compound 5 at 200 nM and pirfenidone at […]; or an Alk5 inhibitor at 1 μm. […] FIG. 6D is a bar graph showing relative expression of COL1A1 in precision cut lung slices (PCLS) from idopathic pulmonary fibrosis (IPF) lung tissue upon exposure to Comopund 5, clinical standard of care compounds nintedanib (Nin) and pirfenidone (Pirf), and an ALK5 inhibitor, all versus DMSO control.
PCLS from a single IPF lung tissue sample were cultured for seven days with Compound 5 at concentrations of […], 2 nM, 60 nM, 200 nM, and 1 μM, along with 0.1% DMSO control and an Alk5 inhibitor at 1 μM. […] COL1A1 expression is also graphed for the PCLS in the presence of 0.1% DMSO control, and an Alk5 inhibitor at 1 μM.

COCCN(CCCCc1ccc2c(n1)NCCC2)CC[C@H](Nc1ncnc2ccccc12)C(=O)O [Compound 5, (S)-4-((2-methoxyethyl) (4-(5,6,7,8-tetrahydro-1,8-naphthyridin-2-yl)butyl)amino)-2-(quinazolin-4-ylamino) butanoic acid]
PSMAD3/SMAD3 in lung tissue (SMAD3 phosphorylation; FIG. 4A): approximately 50 % of the untreated levels | PSMAD3/SMAD3 in BALF (SMAD3 phosphorylation; cells isolated from BALF, FIG. 4B): approximately 50 % of the untreated levels | COL1A1 expression (COL1A1 expression [1]): dose dependent reduction | cell adhesion in the IPF-derived lung fibroblasts [2]: substantially inhibited | reduction in pSMAD2:SMAD2 ratio (pSMAD2:SMAD2 ratio): ≥ 50% | pSMAD3 levels in lung and BALF cells vs. plasma drug exposure (Mice (C57BL/6); 14 days after bleomycin, […] dose PO BID for 1.5 days, FIGS. 4J, 4K): close inverse relationship | percent total collagen area in second harmonic generation lung images (Mice (C57BL/6); bleomycin mice, 1× (p<0.05), […] (p<0.01), 5× (p<0.0001 vs vehicle), FIG. 4I): substantial, statistically significant dose-dependent reduction | accumulated new collagen (percentage of lung collagen containing 2H-labeled hydroxyproline) (Mice (C57BL/6); bleomycin mice, 1× and 5× (p<0.01 vs vehicle), FIG. 4D): dose-dependent reduction | total pulmonary collagen, as measured by μg of hydroxyproline (Mice (C57BL/6); bleomycin mice, 1×, […], 5× (p<0.05 vs vehicle), FIG. 4E): reduction in total pulmonary collagen | SMAD3 phosphorylation in lung tissue (Mice (C57BL/6); bleomycin mice, oral gavage BID 14 days at 1×, […], 5×, vs vehicle, FIG. 4C): substantial, statistically significant dose-dependent reductions | pSMAD3 levels in the lung (Mice (C57BL/6); bleomycin mice, time- and dose-dependent inhibition): approximately 50 % of the untreated levels | COL1A1 expression, dose dependence (COL1A1 expression [3]; PCLS from a single IPF lung sample, seven days, 200 pM to 1 μM, FIG. 6E): dose dependent reduction | reduction in COL1A1 expression (COL1A1 expression [3]; PCLS from a single IPF lung sample, seven days, at ≥2 nM, FIG. 6E): ≥ 47 % reduction | lung Col1a1 expression (COL1A1 expression [3]; human IPF slices, 3 days, 3G9 ≥400 ng/mL, compound 5 179 nM, ALK5 inhibitor 1 μM, FIG. 6C): substantial, statistically significant (p<0.01 vs vehicle) decrease
